Read-outs that look alike come from different tables or passages of the source. Each block holds one compound with its values, some of them ahead of it.
Experiments:
caspase-3 = target: T1, caspase-3 (Homo sapiens, UniProt P42574); assay: Enzyme inhibition assay, caspase 3 (fluorogenic Ac-DEVD-AMC); type: biochemical
T1 construct: purchased Sigma-Aldrich (St. Louis, Mo.)
T1 sequence (P42574 29-175 limits assumed): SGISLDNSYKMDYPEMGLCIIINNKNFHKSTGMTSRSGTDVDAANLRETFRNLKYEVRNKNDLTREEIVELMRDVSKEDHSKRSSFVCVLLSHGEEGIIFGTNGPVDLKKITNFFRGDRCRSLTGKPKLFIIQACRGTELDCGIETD
T1 sequence (P42574 176-277 limits assumed): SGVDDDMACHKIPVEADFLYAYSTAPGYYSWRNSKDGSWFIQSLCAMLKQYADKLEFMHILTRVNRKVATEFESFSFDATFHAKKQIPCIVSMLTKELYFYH

caspase 7 = target: T2, caspase 7 (Homo sapiens, UniProt P55210); assay: Enzyme inhibition assay, caspase 7 (fluorogenic Ac-DEVD-AMC); type: biochemical
T2 construct: purchased Sigma-Aldrich (St. Louis, Mo.)
T2 sequence (P55210 24-198 limits assumed): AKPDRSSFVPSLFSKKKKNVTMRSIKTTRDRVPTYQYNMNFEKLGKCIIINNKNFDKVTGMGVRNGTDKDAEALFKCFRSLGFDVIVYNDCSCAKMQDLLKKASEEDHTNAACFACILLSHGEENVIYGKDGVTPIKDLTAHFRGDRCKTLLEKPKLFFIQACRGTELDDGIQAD
T2 sequence (P55210 207-303 limits assumed): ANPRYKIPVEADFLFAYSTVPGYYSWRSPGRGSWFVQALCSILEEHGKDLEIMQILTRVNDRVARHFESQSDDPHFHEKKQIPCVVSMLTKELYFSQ

caspase 6 = target: T3, caspase 6 (Homo sapiens, UniProt P55212); assay: Enzyme inhibition assay, caspase 6 (fluorogenic Ac-VEID-AMC); type: biochemical
T3 construct: purchased Sigma-Aldrich (St. Louis, Mo.)
T3 sequence (P55212 24-179 limits assumed): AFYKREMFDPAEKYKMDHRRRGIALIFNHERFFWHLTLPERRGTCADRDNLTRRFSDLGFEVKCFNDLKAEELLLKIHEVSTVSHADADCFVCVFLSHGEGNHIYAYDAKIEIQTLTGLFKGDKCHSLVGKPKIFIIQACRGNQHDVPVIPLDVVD
T3 sequence (P55212 194-293 limits assumed): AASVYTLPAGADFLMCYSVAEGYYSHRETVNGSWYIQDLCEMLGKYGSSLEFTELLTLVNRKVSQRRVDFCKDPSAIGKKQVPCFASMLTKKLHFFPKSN

caspase 8 = target: T4, caspase 8 (Homo sapiens, UniProt Q14790); assay: Enzyme inhibition assay, caspase 8 (fluorogenic Ac-IETD-AMC); type: biochemical
T4 construct: purchased Sigma-Aldrich (St. Louis, Mo.)

caspase 1 = target: T5, caspase 1 (Homo sapiens, UniProt P29466); assay: Enzyme inhibition assay, caspase 1 (fluorogenic Ac-YVAD-AMC); type: biochemical
T5 construct: purchased BIOMOL Research Laboratories (Plymouth Meeting, Pa.)
T5 sequence (P29466 120-297 limits assumed): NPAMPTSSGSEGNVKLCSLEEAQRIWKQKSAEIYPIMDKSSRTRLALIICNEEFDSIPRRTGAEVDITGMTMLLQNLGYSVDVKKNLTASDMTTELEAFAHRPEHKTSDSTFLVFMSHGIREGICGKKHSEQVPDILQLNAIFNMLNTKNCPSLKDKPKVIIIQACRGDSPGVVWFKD
T5 sequence (P29466 317-404 limits assumed): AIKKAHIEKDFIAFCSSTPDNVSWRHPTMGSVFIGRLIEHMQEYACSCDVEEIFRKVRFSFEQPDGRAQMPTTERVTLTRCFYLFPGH

[1] = Table 5, read-out: IC50 (nM) caspase-3
[2] = Table 5, read-out: IC50 (nM) caspase-7
[3] = Table 2, read-out: IC50 (nM) Caspase 6
[4] = Table 2, read-out: IC50 (nM) Caspase 8
[5] = Table 7, read-out: IC50 (nM) Casp-8

T4 sequence (Q14790 217-374 limits assumed): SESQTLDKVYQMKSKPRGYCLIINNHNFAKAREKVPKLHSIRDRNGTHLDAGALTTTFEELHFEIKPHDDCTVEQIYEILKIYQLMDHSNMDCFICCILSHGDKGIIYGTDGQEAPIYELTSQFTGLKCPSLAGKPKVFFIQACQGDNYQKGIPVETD
T4 sequence (Q14790 385-479 limits assumed): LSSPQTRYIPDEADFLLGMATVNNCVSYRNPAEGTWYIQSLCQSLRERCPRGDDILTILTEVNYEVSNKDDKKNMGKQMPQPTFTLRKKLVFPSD

SMILES: O=C1C(=O)N(Cc2ccnc(F)c2)c2ccc(S(=O)(=O)N3CC[C@H]3COc3ccccc3)cc21 [Compound 18h, (S)-1-(2-Fluoropyridin-4-yl-methyl)-5-(2-phenoxymethylazetidine-1-sulfonyl)-1H-indole-2,3-dione]
- IC50 (caspase-3; [1]): 29.2 ± 5.2 nM
- melting point: 159 to 159.9 °C
- IC50 (caspase 7; [2]): 135 ± 7.1 nM

SMILES: N#CC(C#N)=C1C(=O)Nc2ccc(S(=O)(=O)N3CCCC3COc3ccccc3)cc21 (centres unmarked) [Compound 26, 2-[2-Oxo-5-(2-phenoxymethyl-pyrrolidine-1-sulfonyl)-1,2-dihydro-indol-3-yl-idene]-malononitrile]
- IC50 (caspase-3; Table 2, read-out: IC50 (nM) Caspase 3): 272 ± 25 nM
- IC50 (caspase-3; Table 7, read-out: IC50 (nM) Casp-3): 272 ± 24.7 nM
- IC50 (caspase-3; read-out: IC50 for caspase-3): 272 nM
- IC50 (caspase 6; [3]): 407 ± 15 nM
- IC50 (caspase 6; Table 7, read-out: IC50 (nM) Casp-6): 407 ± 15 nM
- IC50 (caspase 7; Table 2, read-out: IC50 (nM) Caspase 7): 1580 nM
- IC50 (caspase 7; Table 7, read-out: IC50 (nM) Casp-7): 1580 ± 163 nM
- IC50 (caspase 7; read-out: IC50 for caspase-7): 1580 nM
- IC50 (caspase 8; [4]): > 50000 nM
- IC50 (caspase 8; [5]): > 50000 nM
- IC50 (caspase 1; Table 2, read-out: IC50 (nM) Caspase 1): 1830 nM
- IC50 (caspase 1; Table 7, read-out: IC50 (nM) Casp-1): 1830 ± 128 nM

SMILES: N#CC(C#N)=C1C(=O)N(Cc2ccc(O)cc2)c2ccc(S(=O)(=O)N3CCCC3COc3cccnc3)cc21 (centres unmarked) [Compound 30b, 2-{1-(4-Hydroxy-benzyl)-2-oxo-5-[2-(pyridine-3-yloxymethyl)-pyrrolidine-1-sulfonyl]-1,2-dihydro-indol-3-yl-idene}-malononitrile]
- IC50 (caspase-3; IC50 (nM) Casp-3, Table 7): 7.8 ± 1.9 nM
- IC50 (caspase-3; IC50 (nM) Caspase 3, Table 2): 7.8 ± 1.9 nM
- IC50 (caspase-3; IC50 for caspase-3): 7.8 nM
- IC50 (caspase 6): 650 ± 22 nM
- IC50 (caspase 6; [3]): 850 ± 21 nM
- IC50 (caspase 6; read-out: IC50 for caspase-6): 515 to 770 nM
- IC50 (caspase 7; IC50 (nM) Casp-7, Table 7): 28.3 ± 5.4 nM
- IC50 (caspase 7; IC50 (nM) Caspase 7, Table 2): 28.3 ± 5.4 nM
- IC50 (caspase 7; IC50 for caspase-7): 28.6 nM
- IC50 (caspase 8; [4]): > 50000 nM
- IC50 (caspase 8; [5]): > 50000 nM
- IC50 (caspase 8; read-out: IC50 for caspase-8): > 50000 nM
- IC50 (caspase 1): 2720 nM
- IC50 (caspase 1; IC50 (nM) Casp-1, Table 7): 2720 ± 580 nM
- IC50 (caspase 1; read-out: IC50 for caspase-1): 2700 to 3200 nM

SMILES: N#CC(C#N)=C1C(=O)N(Cc2ccccc2)c2ccc(S(=O)(=O)N3CCCC3COc3cccnc3)cc21 (centres unmarked) [Compound 30a, 2-{1-Benzyl-2-oxo-5-[2-(pyridine-3-yloxymethyl)-pyrrolidine-1-sulfonyl]-1,2-dihydro-indol-3-yl-idene}-malononitrile]
- IC50 (caspase-3; IC50 (nM) Casp-3, Table 7): 7.6 ± 1.1 nM
- IC50 (caspase-3; IC50 (nM) Caspase 3, Table 2): 7.6 ± 1.1 nM
- IC50 (caspase-3; IC50 for caspase-3): 7.6 nM
- IC50 (caspase 6): 823 ± 86 nM
- IC50 (caspase 6; read-out: IC50 for caspase-6): 515 to 770 nM
- IC50 (caspase 7; IC50 (nM) Casp-7, Table 7): 32.8 ± 4.9 nM
- IC50 (caspase 7; IC50 (nM) Caspase 7, Table 2): 32.8 ± 4.9 nM
- IC50 (caspase 7; IC50 for caspase-7): 32.8 nM
- IC50 (caspase 8; [4]): > 50000 nM
- IC50 (caspase 8; [5]): > 50000 nM
- IC50 (caspase 8; read-out: IC50 for caspase-8): > 50000 nM
- IC50 (caspase 1): 3250 nM
- IC50 (caspase 1; IC50 (nM) Casp-1, Table 7): 3250 ± 450 nM
- IC50 (caspase 1; read-out: IC50 for caspase-1): 2700 to 3200 nM

The remaining lines, values ahead:

- IC50 (caspase-3; [1]): 11.3 ± 1.2 nM
- melting point: 167.6 to 169.2 °C
- IC50 (caspase 7; [2]): 26.7 ± 7.2 nM
SMILES: CSc1ccc(CN2C(=O)C(=O)c3cc(S(=O)(=O)N4CC[C@H]4COc4ccccc4)ccc32)cc1 [Compound 18d, (S)-1-(4-Methylthiobenzyl)-5-(2-phenoxymethyl-azetidine-1-sulfonyl)-1H-indole-2,3-dione]

- IC50 (caspase-3; Table 4, read-out: IC50 (nM) caspase-3): 12.2 ± 0.3 nM
- melting point: 97.2 to 99.1 °C
- IC50 (caspase 7; Table 4, read-out: IC50 (nM) caspase-7): 28 ± 0.7 nM
SMILES: O=C1C(=O)N(Cc2ccccc2)c2ccc(S(=O)(=O)N3CCC[C@H]3COc3ccccc3)cc21 [Compound 2, (S)-1-Benzyl-5-(2-phenoxymethyl-pyrrolidine-1-sulfonyl)-1H-indole-2,3-dione]

- melting point: 74.5 to 75.4 °C
SMILES: O=C1C(=O)N(Cc2ccc(F)cc2)c2ccc(S(=O)(=O)N3CCC[C@H]3COc3ccccc3)cc21 [Compound 11c, (S)-1-(4-Fluorobenzyl)-5-(2-phenoxymethyl-pyrrolidine-1-sulfonyl)-1H-indole-2,3-dione]

- IC50 (caspase-3; Table 6, read-out: IC50 (nM) caspase-3): 5.2 ± 1.6 nM
- IC50 (caspase 6; Table 6, read-out: IC50 (nM) caspase-6): > 5000 nM
- IC50 (caspase 7; Table 6, read-out: IC50 (nM) caspase-7): 14.1 ± 3.4 nM
- IC50 (caspase 8; Table 6, read-out: IC50 (nM) caspase-8): > 50000 nM
- IC50 (caspase 1; Table 6, read-out: IC50 (nM) caspase-1): > 10000 nM
SMILES: O=C1C(=O)N(Cc2ccccc2)c2ccc(S(=O)(=O)N3CCCC3COc3cccnc3)cc21 (centres unmarked) [Compound 21b, 1-Benzyl-5-(2-(pyridin-3-yl-oxymethyl)-pyrrolidine-1-sulfonyl)-1H-indole-2,3-dione]
